IC50 data for one compound are collected here from ChEMBL document CHEMBL2203039, “Azabenzthiazole inhibitors of leukotriene A₄ hydrolase” (Bioorg Med Chem Lett, 2012).

This experiment has as its target Voltage-gated inwardly rectifying potassium channel KCNH2 (Homo sapiens, UniProt Q12809). Kind of experiment: Inhibition of dofetilide binding to human ERG by radioligand binding assay.

Chain of Voltage-gated inwardly rectifying potassium channel KCNH2 (Q12809 whole entry): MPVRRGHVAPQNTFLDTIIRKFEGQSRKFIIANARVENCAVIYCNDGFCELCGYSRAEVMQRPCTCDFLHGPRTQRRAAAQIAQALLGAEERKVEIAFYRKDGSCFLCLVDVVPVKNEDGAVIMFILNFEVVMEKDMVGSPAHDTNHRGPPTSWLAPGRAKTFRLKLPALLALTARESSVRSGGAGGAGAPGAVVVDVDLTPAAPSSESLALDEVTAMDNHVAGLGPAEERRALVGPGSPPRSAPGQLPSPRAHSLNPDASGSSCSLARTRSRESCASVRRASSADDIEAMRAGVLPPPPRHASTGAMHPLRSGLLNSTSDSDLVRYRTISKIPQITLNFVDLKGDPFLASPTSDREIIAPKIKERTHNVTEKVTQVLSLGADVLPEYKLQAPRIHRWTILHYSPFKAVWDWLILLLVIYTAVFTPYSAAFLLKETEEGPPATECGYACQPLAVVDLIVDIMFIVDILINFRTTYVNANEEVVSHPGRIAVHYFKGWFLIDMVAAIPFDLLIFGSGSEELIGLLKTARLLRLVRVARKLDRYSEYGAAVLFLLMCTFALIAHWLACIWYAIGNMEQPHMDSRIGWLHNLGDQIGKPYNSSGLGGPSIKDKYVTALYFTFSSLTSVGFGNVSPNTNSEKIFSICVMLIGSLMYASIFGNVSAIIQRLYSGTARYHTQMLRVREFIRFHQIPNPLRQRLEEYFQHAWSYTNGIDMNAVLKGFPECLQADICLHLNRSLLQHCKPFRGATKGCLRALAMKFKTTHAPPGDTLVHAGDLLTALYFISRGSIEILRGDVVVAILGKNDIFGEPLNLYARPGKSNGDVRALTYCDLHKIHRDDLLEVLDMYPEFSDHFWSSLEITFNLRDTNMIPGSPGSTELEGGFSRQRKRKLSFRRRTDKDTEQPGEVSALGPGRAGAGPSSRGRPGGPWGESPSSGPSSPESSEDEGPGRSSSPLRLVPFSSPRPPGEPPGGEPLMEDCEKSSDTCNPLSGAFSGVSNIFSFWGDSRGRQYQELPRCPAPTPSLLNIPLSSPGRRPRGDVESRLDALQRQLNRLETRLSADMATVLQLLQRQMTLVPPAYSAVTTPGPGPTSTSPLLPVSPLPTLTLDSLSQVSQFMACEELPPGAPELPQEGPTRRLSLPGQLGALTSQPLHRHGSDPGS

For `O=C1CCCN1C1CCN(CCc2ccc(Oc3nc4ncccc4s3)cc2)CC1`, the IC50 is above 10 µM.

By IC50 is commonly meant the concentration needed to halve the response being measured. Low values mean higher potency, high ones lower potency.
